Biological target: T1, human vasopressin V1a receptor subtype (Homo sapiens, UniProt P37288)
T1 construct: host or cells: CHO cells, stably transfected (pZeoSV vector for the Thibonnier line); membranes
Assay: Vasopressin binding in CHO cell membranes expressing human vasopressin V1a subtype receptors ([3H]Manning ligand)
Settings: 100 nM, value without parentheses
From the text: Vasopressin Binding in Chinese Hamster Ovary Cell Membranes Expressing Human Vasopressin V1a Subtype Receptors
Chinese hamster ovary cells (CHO cells) stably transfected with the human vasopressin V1a subtype receptors were either obtained from Biosignal Inc., 1744 rue Williams, Montreal, Quebec, Canada or obtained from M. Thibonnier, Case Western Reserve University School of Medicine, Cleveland, Ohio.
A. Passaging and Amplification of Cells:
CHO cells transfected with the human vasopressin V1a subtype receptors obtained from M. Thibonnier (pZeoSV vector) are allowed to grow to confluency (approx. >90%) in T-150 flasks under sterile conditions, in a cell culture medium of F-12 Nutrient Mixture (HAM) with L-glutamine (Gibco Cat. #11765-054) containing 15 mM HEPES (Gibco Cat. #15630-080), 1% antibiotic/antimycotic (add 5 mL 100×, Gibco Cat. #15240-062 per 500 mL F-12), 250 μg/mL Zeocin (add 1.25 mL of 100 mg/mL Invitrogen R-250-01 per 500 mL F-12) and 10% Fetal Bovine Serum (Qualified, heat inactivated, Gibco Cat. #16140-063). The medium is removed by aspiration and the cells are washed with 10 mL of Hank's Balanced Salt solution (Gibco Cat. #14175-095). The salt solution is removed by aspiration and the cells are trypsinized with 5 mL of trypsin-EDTA (0.05% trypsin, 0.53 mM EDTA-4Na, Gibco Cat. #25300-070) for 1 min. The trypsin is removed by aspiration and the cells dislodged by tapping. Cell Culture medium (eg, 30 mL for 1:30 split) is immediately added and mixed well to inactivate trypsin. 1 mL of detached cells is added to new culture flasks containing fresh cell culture medium (eg, into 25 mL per T-150 flask), and mixed gently. The cells are incubated at 37° C. in 5% CO2. The medium is changed at 3 to 4 days interval (or as appropriate). The cells grow to confluency (approx. >75%-95%) within 7-8 days. All steps are done under sterile conditions.
The cells are washed twice gently with Hank's Balanced Salt solution (e.g,. use 10 mL per T-150 flask). The excess is removed and the cells are bathed for 15-30 min. in an enzyme-free Cell Dissociation Buffer (e.g. use 8 mL Hank's Based, Gibco Cat. #13150-016 per T-150 flask) until the cells are loosened. The contents are transferred to centrifuge tubes (50 mL size) kept in ice bath. All subsequent steps are done at 4° C. The tubes are centrifuged at 300×g for 15 min (1380 rpm on SORVAL, Model RT6000D, using rotor for 50 mL tubes). The supernatant is discarded and the cells suspended in homogeneizing buffer(10 mM Tris-HCl containing 0.25 M sucrose and 1 mM EDTA, pH 7.4) ensuring that the volume of the buffer is about ten times the volume of the cell pellet. The cells are pooled into a centrifuge tube (50 mL) and homogenized with Polytron at setting 6 for 10 sec. The homogenate is transferred into a Potter-Elvjehm homogenizer and homogenized with 3 strokes. The homogenate is centrifuged at 1500×g for 10 min at 4° C. (3100 rpm using SORVAL, model RT6000D, using rotor for 50 mL tubes). The pellet is discarded. The supernatant is centrifuged at 100,000×g for 60 min. at 4° C. (Beckman L8-80M ultracentrifuge; spin at 37,500 rpm with rotor type 70 Ti for 50 mL tubes; 38,000 rpm with type 80Ti for 15 mL tubes; or 35,800 rpm with rotor type 45Ti). The supemantant is discarded and the pellet suspended in 3 to 4 mL of Tris buffer (50 mM TRIS-HCl, pH 7.4). The protein content is estimated by the Bradford or Lowry method. The volume of the membrane suspension is adjusted with the membrane buffer (50 mM Tris-HCl containing 0.1% BSA and 0.1 mM PMSF) to give 3.0 mg/mL (or as appropriate) of protein. The membranes are aliquoted and stored at −70° C.
C. Radioligand Binding Assay: […]

T1 sequence (P37288 whole entry): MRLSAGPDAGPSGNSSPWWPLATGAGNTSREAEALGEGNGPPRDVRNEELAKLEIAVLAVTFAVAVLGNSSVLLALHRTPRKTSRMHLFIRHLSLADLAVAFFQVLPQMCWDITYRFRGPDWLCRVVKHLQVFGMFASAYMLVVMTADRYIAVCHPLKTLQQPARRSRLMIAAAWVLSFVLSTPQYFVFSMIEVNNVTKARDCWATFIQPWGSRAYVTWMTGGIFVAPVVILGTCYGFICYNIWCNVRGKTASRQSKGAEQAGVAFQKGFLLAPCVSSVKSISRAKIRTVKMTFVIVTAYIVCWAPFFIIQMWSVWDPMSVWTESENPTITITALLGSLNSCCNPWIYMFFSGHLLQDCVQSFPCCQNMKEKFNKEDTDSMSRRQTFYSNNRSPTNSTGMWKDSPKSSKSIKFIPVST

SMILES | V1a % inhibition @ 100 nM
Cc1cc(C(=O)N2Cc3ccc(C(=O)N(CCO)CCO)n3Cc3ccccc32)ccc1C1=CCCc2ccccc21 [Example 16, {10-[4-(3,4-Dihydro-naphthalen-1-yl)-3-methyl-benzoyl]-10,11-dihydro-5H-pyrrolo[2,1-c][1,4]benzodiazepin-3-yl}-3-carboxylic acid bis-(2-hydroxy-ethyl)-amide] | 6%
Cc1cc(C(=O)N2Cc3ccc(C(=O)N4CCN(CCO)CC4)n3Cc3ccccc32)ccc1C1=CCCCC1 [Example 17, {10-[4-(1-Cyclohex-1-en-1-yl)-3-methylbenzoyl]-10,11-dihydro-5H-pyrrolo[2,1-c][1,4]benzodiazepin-3-yl}[4-(2-hydroxyethyl)-1-piperazinyl]methanone] | 31%

From patent US6977254B2, “Hydroxy cyclohexenyl phenyl carboxamides tocolytic oxytocin receptor antagonists” (Wyeth, priority 2001, dated 2005)
